Measurements: publication PMC5960991 (Nature chemistry, 2017)

Molecular target: T1, NapT8 (Streptomyces sp. CNQ-525, UniProt A7KH30)
T1 sequence (A7KH30 1-297): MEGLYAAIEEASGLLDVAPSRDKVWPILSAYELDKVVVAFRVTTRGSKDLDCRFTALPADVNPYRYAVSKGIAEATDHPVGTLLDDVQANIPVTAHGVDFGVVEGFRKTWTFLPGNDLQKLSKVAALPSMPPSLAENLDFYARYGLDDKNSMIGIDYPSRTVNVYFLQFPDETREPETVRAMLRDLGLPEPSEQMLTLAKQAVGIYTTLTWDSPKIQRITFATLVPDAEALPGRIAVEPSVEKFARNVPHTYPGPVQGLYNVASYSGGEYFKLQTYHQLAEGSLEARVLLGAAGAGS
Test: reversed-phase HPLC turnover assay
Format: biochemical
Details: 34 as prenyl acceptor; MgCl2

CC(C)=CCOP(=O)(O)OP(=O)(O)O [dimethylallyl pyrophosphate]
reversed-phase HPLC turnover assay: NapT8 was only active when the isoprenoid DMAPP was utilized
